{"source": "ChEMBL document CHEMBL1201862", "about": "“PubChem BioAssay data set” (2004)", "key": {"[1]": {"system": "BJ", "test": "cytotoxicity toward BJ-TERT-LT-ST fibroblasts, dose response, cell-based, RAS-independent, luminescence (AID 1935);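 note: BJ fibroblasts immortalized with TERT plus LT and ST oncogenes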", "format": "functional", "settings": "Homo sapiens"}, "[2]": {"test": "cytotoxicity toward DRD oncogenic fibroblasts, dose response, cell-based, non-viral oncogenic, luminescence (AID 1934)", "format": "functional", "settings": "Homo sapiens"}, "[3]": {"system": "HEK293", "test": "cells", "format": "functional, cell-based", "settings": "Homo sapiens"}, "[4]": {"system": "BJ", "test": "cells", "format": "functional, cell-based", "settings": "Homo sapiens"}, "[5]": {"system": "Vero", "test": "cells", "format": "functional", "settings": "Chlorocebus sabaeus"}, "[6]": {"system": "HEK293", "test": "cells", "format": "functional, cell-based", "settings": "Homo sapiens", "remark": "listed apart in the source"}, "[7]": {"system": "HEK293", "test": "NOD1 signaling inhibitors, primary screen, cell-based, luminescence, uHTS (AID 1578)", "format": "functional", "settings": "Homo sapiens"}, "[8]": {"system": "BJ", "test": "cytotoxicity toward BJ-TERT fibroblasts, dose response, cell-based, RAS-independent, luminescence (AID 1933)", "format": "functional", "settings": "Homo sapiens"}, "[9]": {"system": "HEK293", "test": "cells", "format": "functional, cell-based", "settings": "Homo sapiens", "remark": "listed apart in the source"}, "[10]": {"target": "Nucleotide-binding oligomerization domain-containing protein 2 (Homo sapiens, UniProt Q9HC29)", "sequence (Q9HC29 whole entry, the tested form may be a part)": "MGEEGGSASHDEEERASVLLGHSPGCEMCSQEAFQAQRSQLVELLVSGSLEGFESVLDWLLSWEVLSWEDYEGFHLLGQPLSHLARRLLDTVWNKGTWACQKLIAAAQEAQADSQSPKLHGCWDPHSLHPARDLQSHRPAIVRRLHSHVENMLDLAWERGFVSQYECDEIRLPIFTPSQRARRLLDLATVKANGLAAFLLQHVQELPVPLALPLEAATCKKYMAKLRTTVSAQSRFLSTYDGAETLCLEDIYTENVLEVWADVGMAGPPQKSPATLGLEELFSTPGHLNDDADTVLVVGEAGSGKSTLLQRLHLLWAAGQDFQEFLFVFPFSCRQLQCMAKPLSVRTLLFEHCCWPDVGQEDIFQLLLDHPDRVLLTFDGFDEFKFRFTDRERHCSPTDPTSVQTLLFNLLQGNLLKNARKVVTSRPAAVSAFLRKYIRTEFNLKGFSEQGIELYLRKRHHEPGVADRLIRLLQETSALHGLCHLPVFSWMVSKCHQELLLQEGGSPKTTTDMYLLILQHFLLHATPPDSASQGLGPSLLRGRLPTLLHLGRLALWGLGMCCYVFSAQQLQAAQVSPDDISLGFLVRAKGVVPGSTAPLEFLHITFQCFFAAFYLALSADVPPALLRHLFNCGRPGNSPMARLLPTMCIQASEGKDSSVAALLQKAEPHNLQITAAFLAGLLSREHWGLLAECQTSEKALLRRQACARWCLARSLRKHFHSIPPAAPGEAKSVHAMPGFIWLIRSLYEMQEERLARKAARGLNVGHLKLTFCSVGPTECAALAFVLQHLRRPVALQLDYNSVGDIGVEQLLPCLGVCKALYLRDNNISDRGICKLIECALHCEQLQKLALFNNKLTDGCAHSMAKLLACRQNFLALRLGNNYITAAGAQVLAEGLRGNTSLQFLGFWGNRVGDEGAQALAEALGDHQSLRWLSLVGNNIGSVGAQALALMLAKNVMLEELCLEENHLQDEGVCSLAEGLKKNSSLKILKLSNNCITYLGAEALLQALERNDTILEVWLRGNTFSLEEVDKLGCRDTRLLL", "test": "NOD2 signaling inhibitors, cell-based, luminescence, uHTS, HEK293 (AID 1566)", "format": "functional"}, "[11]": {"system": "HEK293", "test": "NOD2 signaling inhibitors in MDP-stimulated cells, cell-based, uHTS, luminescence (AID 2001)", "format": "functional", "settings": "Homo sapiens"}, "[12]": {"target": "T1, Coagulation factor XII (Homo sapiens, UniProt P00748)", "T1 sequence (P00748 whole entry)": "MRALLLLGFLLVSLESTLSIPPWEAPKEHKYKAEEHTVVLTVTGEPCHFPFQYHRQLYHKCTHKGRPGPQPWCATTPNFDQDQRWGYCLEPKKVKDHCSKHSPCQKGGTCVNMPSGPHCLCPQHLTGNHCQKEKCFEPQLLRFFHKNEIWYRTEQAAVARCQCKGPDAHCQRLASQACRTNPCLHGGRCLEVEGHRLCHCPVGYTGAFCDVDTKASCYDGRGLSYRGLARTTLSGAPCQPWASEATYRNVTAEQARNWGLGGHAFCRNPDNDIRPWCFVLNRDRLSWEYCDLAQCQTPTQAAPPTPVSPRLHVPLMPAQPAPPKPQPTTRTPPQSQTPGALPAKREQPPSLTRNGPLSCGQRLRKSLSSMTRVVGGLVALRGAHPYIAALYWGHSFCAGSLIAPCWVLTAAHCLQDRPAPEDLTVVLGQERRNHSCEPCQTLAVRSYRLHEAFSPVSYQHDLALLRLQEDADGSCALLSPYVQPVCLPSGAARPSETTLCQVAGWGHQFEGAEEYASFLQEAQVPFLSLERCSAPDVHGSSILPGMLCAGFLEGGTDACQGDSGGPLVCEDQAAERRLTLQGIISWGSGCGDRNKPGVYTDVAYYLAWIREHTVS", "format": "functional"}, "[13]": {"target": "T2, Short transient receptor potential channel 4 (Mus musculus, UniProt Q9QUQ5)", "T2 sequence (Q9QUQ5 whole entry)": "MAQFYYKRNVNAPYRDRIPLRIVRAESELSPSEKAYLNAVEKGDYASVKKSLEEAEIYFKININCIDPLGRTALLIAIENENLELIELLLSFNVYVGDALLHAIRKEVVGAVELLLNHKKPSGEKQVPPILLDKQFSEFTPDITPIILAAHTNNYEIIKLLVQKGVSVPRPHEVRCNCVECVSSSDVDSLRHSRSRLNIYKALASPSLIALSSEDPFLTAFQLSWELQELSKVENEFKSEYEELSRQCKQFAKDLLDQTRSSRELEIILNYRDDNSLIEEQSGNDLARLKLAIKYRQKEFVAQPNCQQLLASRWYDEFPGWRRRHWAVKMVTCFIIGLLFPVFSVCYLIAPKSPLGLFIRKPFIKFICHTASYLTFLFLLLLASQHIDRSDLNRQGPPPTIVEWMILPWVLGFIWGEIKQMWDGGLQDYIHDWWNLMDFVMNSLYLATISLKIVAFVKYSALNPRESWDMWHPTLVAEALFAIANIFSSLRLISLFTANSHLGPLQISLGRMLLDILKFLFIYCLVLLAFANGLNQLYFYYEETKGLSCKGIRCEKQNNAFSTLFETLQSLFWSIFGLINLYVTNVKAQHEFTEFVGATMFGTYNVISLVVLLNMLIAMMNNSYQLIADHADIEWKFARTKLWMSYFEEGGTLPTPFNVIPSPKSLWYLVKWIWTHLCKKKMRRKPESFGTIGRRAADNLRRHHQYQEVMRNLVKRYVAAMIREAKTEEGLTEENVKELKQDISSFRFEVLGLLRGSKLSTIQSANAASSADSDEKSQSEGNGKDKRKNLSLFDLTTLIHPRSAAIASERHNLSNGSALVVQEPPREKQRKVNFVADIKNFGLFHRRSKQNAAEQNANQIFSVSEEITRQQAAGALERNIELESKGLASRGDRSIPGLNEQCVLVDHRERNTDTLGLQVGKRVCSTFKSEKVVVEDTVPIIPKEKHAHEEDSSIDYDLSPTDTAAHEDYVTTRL", "test": "mouse TRPC4 channel inhibitors, dose response, cell-based, HEK293 TRPC4/mu-opioid, Fluo-4 calcium (AID 434942);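 note: potency of inhibitors blocking the TRPC4 calcium response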", "format": "functional"}, "[14]": {"target": "T3, High affinity choline transporter 1 (Homo sapiens, UniProt Q9GZV3)", "T3 sequence (Q9GZV3 whole entry)": "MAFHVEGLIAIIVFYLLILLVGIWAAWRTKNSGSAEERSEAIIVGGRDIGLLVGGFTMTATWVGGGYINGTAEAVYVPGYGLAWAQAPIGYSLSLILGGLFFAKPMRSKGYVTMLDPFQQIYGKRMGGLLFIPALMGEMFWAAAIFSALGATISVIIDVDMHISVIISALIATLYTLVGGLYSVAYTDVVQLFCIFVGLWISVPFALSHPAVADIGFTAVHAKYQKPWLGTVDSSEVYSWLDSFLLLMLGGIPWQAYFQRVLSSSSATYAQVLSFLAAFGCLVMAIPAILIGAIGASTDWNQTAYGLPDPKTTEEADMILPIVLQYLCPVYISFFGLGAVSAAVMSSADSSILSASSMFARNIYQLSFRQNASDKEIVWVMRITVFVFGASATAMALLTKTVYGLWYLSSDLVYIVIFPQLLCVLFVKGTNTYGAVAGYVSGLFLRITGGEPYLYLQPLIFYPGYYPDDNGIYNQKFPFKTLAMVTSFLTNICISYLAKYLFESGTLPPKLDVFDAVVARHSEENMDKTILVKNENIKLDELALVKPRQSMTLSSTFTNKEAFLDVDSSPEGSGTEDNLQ", "test": "CHT inhibitors, dose response, cell-based, 5-point CRC, membrane potential dye (AID 504840)", "format": "functional"}, "[15]": {"test": "microbe, parasite or virus in culture", "format": "functional", "settings": "Mycobacterium tuberculosis"}, "[16]": {"test": "Vero E6 cell cytotoxicity, dose response, cytotoxicity control for non-replicating M. tuberculosis project, secondary assay (AID 492998)", "format": "functional, VeroE6", "settings": "Vero C1008"}, "[17]": {"test": "THP-1 cell cytotoxicity, dose response, cytotoxicity control for non-replicating M. tuberculosis project (AID 489025)", "format": "functional"}, "[18]": {"test": "cells", "format": "functional"}, "[19]": {"target": "T4, Alkaline phosphatase, tissue-nonspecific isozyme (Homo sapiens, UniProt P05186)", "T4 sequence (P05186 whole entry)": "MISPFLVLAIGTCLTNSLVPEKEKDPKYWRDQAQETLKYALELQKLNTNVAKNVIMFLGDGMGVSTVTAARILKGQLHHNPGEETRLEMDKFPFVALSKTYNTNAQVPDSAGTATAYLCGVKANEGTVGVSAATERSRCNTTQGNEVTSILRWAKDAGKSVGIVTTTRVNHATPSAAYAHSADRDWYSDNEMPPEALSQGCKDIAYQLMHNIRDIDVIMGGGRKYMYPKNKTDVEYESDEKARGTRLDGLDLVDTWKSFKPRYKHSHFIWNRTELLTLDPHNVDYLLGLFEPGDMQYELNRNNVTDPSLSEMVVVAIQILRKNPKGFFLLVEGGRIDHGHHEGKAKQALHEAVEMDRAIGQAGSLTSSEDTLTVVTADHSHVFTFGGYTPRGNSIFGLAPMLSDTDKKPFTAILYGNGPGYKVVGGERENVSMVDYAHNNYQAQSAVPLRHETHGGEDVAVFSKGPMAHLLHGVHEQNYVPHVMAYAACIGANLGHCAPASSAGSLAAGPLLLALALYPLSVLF", "test": "human TNAP enzyme inhibitors, SAR follow-up, biochemical, luminescent, dose response (AID 1056)"}, "[20]": {"target": "Glyceraldehyde-3-phosphate dehydrogenase (Homo sapiens, UniProt P04406)", "sequence (P04406 whole entry)": "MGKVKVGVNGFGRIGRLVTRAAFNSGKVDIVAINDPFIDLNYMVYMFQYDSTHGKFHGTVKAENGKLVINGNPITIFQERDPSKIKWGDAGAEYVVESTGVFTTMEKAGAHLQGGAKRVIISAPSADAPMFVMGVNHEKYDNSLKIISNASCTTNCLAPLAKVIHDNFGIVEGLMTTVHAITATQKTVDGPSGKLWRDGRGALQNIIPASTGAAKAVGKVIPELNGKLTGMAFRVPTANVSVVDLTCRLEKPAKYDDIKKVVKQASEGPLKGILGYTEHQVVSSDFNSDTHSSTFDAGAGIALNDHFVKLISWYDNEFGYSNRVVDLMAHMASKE"}, "[21]": {"target": "T5, Carboxy-terminal domain RNA polymerase II polypeptide A small phosphatase 1 (Homo sapiens, UniProt Q9GZU7)", "T5 sequence (Q9GZU7 whole entry)": "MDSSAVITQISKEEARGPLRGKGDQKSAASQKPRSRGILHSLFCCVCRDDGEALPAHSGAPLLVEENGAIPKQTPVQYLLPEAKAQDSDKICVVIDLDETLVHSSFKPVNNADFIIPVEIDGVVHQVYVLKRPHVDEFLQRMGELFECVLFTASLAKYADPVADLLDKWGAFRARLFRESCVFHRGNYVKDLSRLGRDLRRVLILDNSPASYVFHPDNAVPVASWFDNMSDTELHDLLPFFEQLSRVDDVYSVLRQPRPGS", "test": "inhibitors of CTDSP1, concentration-response testing, biochemical assay, absorbance-based, actives from ultra-high-throughput screening (AID 540297)", "format": "functional"}, "[22]": {"test": "cytotoxicity toward NIH3T3 fibroblasts, dose response, counter-screen, cell-based, ATP luminescence, mouse fibroblasts (AID 2010);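 note: cells exposed to compound for about 90 hours before reading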", "format": "functional"}, "[23]": {"test": "inhibitors of intracellular T. cruzi replication, confirmation, NIH3T3 host cells, beta-gal luminescence (AID 2044);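 note: luminescent beta-galactosidase reporter signal from transgenic T. cruzi replicating inside host cells; inhibitors lower the luminescence signal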", "format": "functional, cell-based"}}, "note": "Calls of active or inactive are those of the source.", "data": [{"smiles": "COc1cc(/C=C/c2ccc3cccc(O)c3n2)cc(Cl)c1OC", "values": [{"measurement": "EC50", "setting": "[1]", "value": "> 150 µM (not active)"}, {"measurement": "EC50", "setting": "[2]", "value": "19.1 µM (active)"}, {"measurement": "IC50", "setting": "[3]", "value": "> 20 µM (inactive)"}, {"measurement": "EC50", "setting": "[4]", "value": "44.9 µM (active)"}, {"measurement": "CC50", "setting": "[5]", "value": "11.6 µM (active)"}, {"measurement": "IC50", "setting": "[6]", "value": "9.42 µM (active)"}, {"measurement": "EC50", "setting": "[7]", "value": "3.66 µM (active)"}, {"measurement": "EC50", "setting": "[8]", "value": "23.4 µM (active)"}, {"measurement": "IC50", "setting": "[9]", "value": "> 20 µM (inactive)"}, {"measurement": "EC50", "setting": "[10]", "value": "> 20 µM (inactive)"}, {"measurement": "IC50", "setting": "[11]", "value": "4.22 µM (inactive)"}]}, {"smiles": "COC(=O)c1ccc(Nc2nc(C)cc(=O)[nH]2)cc1", "values": [{"measurement": "IC50", "setting": "[12]", "value": "> 50 µM (inactive)"}]}, {"smiles": "COc1ccccc1CC(Cc1nc2ccccc2[nH]1)c1nc2ccccc2[nH]1", "note": "(configuration not stated)", "values": [{"measurement": "EC50", "setting": "[13]", "value": "3.35 µM (active)"}, {"measurement": "IC50", "setting": "[14]", "value": "13.8 µM (active)"}]}, {"smiles": "CCCCn1c(=O)c(C(=O)Nc2ncccc2C)c(O)c2ccccc21", "values": [{"measurement": "CC50", "setting": "[15]", "value": "29.3 µM (active)"}, {"measurement": "CC50", "setting": "[16]", "value": "> 20 µM (active)"}, {"measurement": "CC50", "setting": "[17]", "value": "> 40 µM (active)"}, {"measurement": "IC50", "setting": "[18]", "value": "17.3 µM (active)"}]}, {"smiles": "COc1ccc2c(c1)CCc1c(C(=O)NCc3ccc(F)cc3)noc1-2", "values": [{"measurement": "IC50", "setting": "[12]", "value": "3.61 µM (active)"}]}, {"smiles": "O=[N+]([O-])c1cncc([N+](=O)[O-])c1Nc1ccccc1Cl", "values": [{"measurement": "IC50", "setting": "[12]", "value": "> 50 µM (inactive)"}, {"measurement": "IC50", "setting": "[18]", "value": "8.86 µM (active)"}]}, {"smiles": "COc1ccc(S(=O)(=O)Nc2ccc3ccccc3c2)cc1OC", "values": [{"measurement": "IC50", "setting": "[19]", "value": "> 100 µM (inactive)"}, {"measurement": "IC50", "setting": "[20]", "value": "> 100 µM (not active)"}]}, {"smiles": "Cc1cc(C(=O)N/N=C/c2ccc(-c3ccccc3Cl)o2)[nH]n1", "values": [{"measurement": "IC50", "setting": "[21]", "value": "11.5 µM (active)"}, {"measurement": "EC50", "setting": "[22]", "value": "> 60 µM (not active)"}, {"measurement": "EC50", "setting": "[23]", "value": "1.5 µM (active)"}]}, {"smiles": "O=C(O)c1nn(CCOc2c(Cl)cccc2Cl)c(=O)c2ccccc12", "values": [{"measurement": "CC50", "setting": "[5]", "value": "> 25 µM (active)"}]}]}
